Patent US11311522B1 (Cavion, Inc., priority 2018, dated 2022)

Test: PN002/Part II: safety and tolerability
Format: in vivo
From the text: Clinical safety was monitored throughout the study by adverse events, clinical laboratory tests, vital signs, ECGs, and ECG telemetry.
The subject was not on telemetry at the time.

CC(C)c1ccc(CC(=O)N[C@H](C)c2ccc(OCC(F)(F)F)cn2)cc1 [CX-8998]
Abnormal physical sensation (2 mg/d): 0 n % | Abnormal sensation of limbs (2 mg/d): 0 n % | Anger (2 mg/d): 0 n % | Application site erythema (2 mg/d): 0 n % | Application site pruritus (2 mg/d): 0 n % | At least 1 adverse event (2 mg/d): 4 (66.7) n % | Backache (2 mg/d): 0 n % | Clamminess (2 mg/d): 0 n % | Daydreaming (2 mg/d): 0 n % | Disorientation (2 mg/d): 1 (16.7) n % | Dizziness (2 mg/d): 0 n % | Drowsiness (2 mg/d): 0 n % | Dyspepsia (2 mg/d): 0 n % | Euphoric mood (2 mg/d): 0 n % | Eye Disorders (2 mg/d): 0 n % | Feeling drunk (2 mg/d): 0 n % | Feeling of relaxation (2 mg/d): 0 n % | Floating feeling (2 mg/d): 0 n % | Fuzzy head (2 mg/d): 0 n % | Gastrointestinal Disorders (2 mg/d): 2 (33.3) n % | Hallucination (2 mg/d): 0 n % | Headache (2 mg/d): 1 (16.7) n % | Heaviness of head (2 mg/d): 0 n % | Hyperactivity (2 mg/d): 0 n % | Hypoaesthesia mouth (2 mg/d): 0 n % | Increased state of alertness (2 mg/d): 0 n % | Intermittent headache (2 mg/d): 0 n % | Lethargy (2 mg/d): 0 n % | Lightheadedness (2 mg/d): 0 n % | Mood altered (2 mg/d): 0 n % | Mood change (2 mg/d): 0 n % | Musculoskeletal and Connective Tissue Disorders (2 mg/d): 2 (33.3) n % | Nausea (2 mg/d): 2 (33.3) n % | Nervous System Disorders (2 mg/d): 1 (16.7) n % | Paraesthesia generalized (2 mg/d): 0 n % | Paranoia (2 mg/d): 0 n % | Psychiatric Disorders (2 mg/d): 1 (16.7) n % | Respiratory, Thoracic and Mediastinal Disorders (2 mg/d): 1 (16.7) n % | Sedation (2 mg/d): 0 n % | Sensation of heaviness (2 mg/d): 0 n % | Sensation of pressure (2 mg/d): 0 n % | Skin and Subcutaneous Tissue Disorders (2 mg/d): 0 n % | Sleep difficult (2 mg/d): 0 n % | Sleep disturbance (2 mg/d): 0 n % | Somnolence (2 mg/d): 0 n % | Sore throat (2 mg/d): 1 (16.7) n % | Spaced out (2 mg/d): 0 n % | Syncope (2 mg/d): 1 (16.7) n % | Taste change (2 mg/d): 0 n % | Temporal disorientation (2 mg/d): 0 n % | Tingling (2 mg/d): 1 (16.7) n % | Tiredness (2 mg/d): 1 (16.7) n % | Visual disturbance (2 mg/d): 0 n % | Vivid dreams (2 mg/d): 0 n % | Vomiting (2 mg/d): 1 (16.7) n % | Abnormal physical sensation (4 mg/d): 0 n % | Abnormal sensation of limbs (4 mg/d): 0 n % | Anger (4 mg/d): 0 n % | Application site erythema (4 mg/d): 0 n % | Application site pruritus (4 mg/d): 0 n % | At least 1 adverse event (4 mg/d): 5 (83.3) n % | Backache (4 mg/d): 0 n % | Clamminess (4 mg/d): 0 n % | Daydreaming (4 mg/d): 0 n % | Disorientation (4 mg/d): 0 n % | Dizziness (4 mg/d): 0 n % | Drowsiness (4 mg/d): 2 (33.3) n % | Dyspepsia (4 mg/d): 0 n % | Euphoric mood (4 mg/d): 1 (16.7) n % | Eye Disorders (4 mg/d): 1 (16.7) n % | Feeling drunk (4 mg/d): 0 n % | Feeling of relaxation (4 mg/d): 4 (66.7) n % | Floating feeling (4 mg/d): 1 (16.7) n % | Fuzzy head (4 mg/d): 1 (16.7) n % | Gastrointestinal Disorders (4 mg/d): 1 (16.7) n % | Hallucination (4 mg/d): 0 n % | Headache (4 mg/d): 3 (50.0) n % | Heaviness of head (4 mg/d): 0 n % | Hyperactivity (4 mg/d): 0 n % | Hypoaesthesia mouth (4 mg/d): 0 n % | Increased state of alertness (4 mg/d): 1 (16.7) n % | Intermittent headache (4 mg/d): 1 (16.7) n % | Lethargy (4 mg/d): 1 (16.7) n % | Lightheadedness (4 mg/d): 4 (66.7) n % | Mood altered (4 mg/d): 0 n % | Mood change (4 mg/d): 0 n % | Musculoskeletal and Connective Tissue Disorders (4 mg/d): 0 n % | Nausea (4 mg/d): 0 n % | Nervous System Disorders (4 mg/d): 5 (83.3) n % | Paraesthesia generalized (4 mg/d): 0 n % | Paranoia (4 mg/d): 0 n % | Psychiatric Disorders (4 mg/d): 3 (50.0) n % | Respiratory, Thoracic and Mediastinal Disorders (4 mg/d): 0 n % | Sedation (4 mg/d): 0 n % | Sensation of heaviness (4 mg/d): 0 n % | Sensation of pressure (4 mg/d): 0 n % | Skin and Subcutaneous Tissue Disorders (4 mg/d): 1 (16.7) n % | Sleep difficult (4 mg/d): 0 n % | Sleep disturbance (4 mg/d): 1 (16.7) n % | Somnolence (4 mg/d): 1 (16.7) n % | Sore throat (4 mg/d): 0 n % | Spaced out (4 mg/d): 0 n % | Syncope (4 mg/d): 0 n % | Taste change (4 mg/d): 0 n % | Temporal disorientation (4 mg/d): 0 n % | Tingling (4 mg/d): 0 n % | Tiredness (4 mg/d): 2 (33.3) n % | Visual disturbance (4 mg/d): 1 (16.7) n % | Vivid dreams (4 mg/d): 2 (33.3) n % | Vomiting (4 mg/d): 0 n % | Abnormal physical sensation (8 mg/d): 0 n % | Abnormal sensation of limbs (8 mg/d): 0 n % | Anger (8 mg/d): 0 n % | Application site erythema (8 mg/d): 3 (50.0) n % | Application site pruritus (8 mg/d): 1 (16.7) n % | At least 1 adverse event (8 mg/d): 6 (100) n % | Backache (8 mg/d): 0 n % | Clamminess (8 mg/d): 1 (16.7) n % | Daydreaming (8 mg/d): 1 (16.7) n % | Disorientation (8 mg/d): 0 n % | Dizziness (8 mg/d): 0 n % | Drowsiness (8 mg/d): 1 (16.7) n % | Dyspepsia (8 mg/d): 2 (33.3) n % | Euphoric mood (8 mg/d): 2 (33.3) n % | Eye Disorders (8 mg/d): 2 (33.3) n % | Feeling drunk (8 mg/d): 0 n % | Feeling of relaxation (8 mg/d): 1 (16.7) n % | Floating feeling (8 mg/d): 2 (33.3) n % | Fuzzy head (8 mg/d): 1 (16.7) n % | Gastrointestinal Disorders (8 mg/d): 3 (50.0) n % | Hallucination (8 mg/d): 0 n % | Headache (8 mg/d): 5 (83.3) n % | Heaviness of head (8 mg/d): 0 n % | Hyperactivity (8 mg/d): 2 (33.3) n % | Hypoaesthesia mouth (8 mg/d): 0 n % | Increased state of alertness (8 mg/d): 1 (16.7) n % | Intermittent headache (8 mg/d): 1 (16.7) n % | Lethargy (8 mg/d): 1 (16.7) n % | Lightheadedness (8 mg/d): 4 (66.7) n % | Mood altered (8 mg/d): 1 (16.7) n % | Mood change (8 mg/d): 2 (33.3) n % | Musculoskeletal and Connective Tissue Disorders (8 mg/d): 1 (16.7) n % | Nausea (8 mg/d): 1 (16.7) n % | Nervous System Disorders (8 mg/d): 6 (100) n % | Paraesthesia generalized (8 mg/d): 1 (16.7) n % | Paranoia (8 mg/d): 0 n % | Psychiatric Disorders (8 mg/d): 3 (50.0) n % | Respiratory, Thoracic and Mediastinal Disorders (8 mg/d): 3 (50.0) n % | Sedation (8 mg/d): 2 (33.3) n % | Sensation of heaviness (8 mg/d): 1 (16.7) n % | Sensation of pressure (8 mg/d): 2 (33.3) n % | Skin and Subcutaneous Tissue Disorders (8 mg/d): 1 (16.7) n % | Sleep difficult (8 mg/d): 0 n % | Sleep disturbance (8 mg/d): 0 n % | Somnolence (8 mg/d): 2 (33.3) n % | Sore throat (8 mg/d): 1 (16.7) n % | Spaced out (8 mg/d): 1 (16.7) n % | Syncope (8 mg/d): 0 n % | Taste change (8 mg/d): 1 (16.7) n % | Temporal disorientation (8 mg/d): 2 (33.3) n % | Tingling (8 mg/d): 1 (16.7) n % | Tiredness (8 mg/d): 3 (50.0) n % | Visual disturbance (8 mg/d): 1 (16.7) n % | Vivid dreams (8 mg/d): 2 (33.3) n % | Vomiting (8 mg/d): 1 (16.7) n % | Abnormal physical sensation (12 mg/d): 0 n %
